Experimental findings from ChEMBL document CHEMBL2021908, “Identification of novel isocytosine derivatives as xanthine oxidase inhibitors from a set of virtual screening hits” (Bioorg Med Chem, 2012) are described below.

Structures are written as SMILES.

As usually defined, the inhibition is the percentage by which the read-out fell short of the control. Broadly, the IC50 is the concentration needed to halve the response being measured.

In test [1] the target is T1, Xanthine dehydrogenase/oxidase (Bos taurus, UniProt P80457). Put plainly: Inhibition of bovine xanthine oxidase assessed as uric acid formation using xanthine as substrate at 100 uM after 30 mins by spectrophotometric analysis. The conditions noted are these: cattle, 0.5 h.
T1 sequence (P80457 whole entry): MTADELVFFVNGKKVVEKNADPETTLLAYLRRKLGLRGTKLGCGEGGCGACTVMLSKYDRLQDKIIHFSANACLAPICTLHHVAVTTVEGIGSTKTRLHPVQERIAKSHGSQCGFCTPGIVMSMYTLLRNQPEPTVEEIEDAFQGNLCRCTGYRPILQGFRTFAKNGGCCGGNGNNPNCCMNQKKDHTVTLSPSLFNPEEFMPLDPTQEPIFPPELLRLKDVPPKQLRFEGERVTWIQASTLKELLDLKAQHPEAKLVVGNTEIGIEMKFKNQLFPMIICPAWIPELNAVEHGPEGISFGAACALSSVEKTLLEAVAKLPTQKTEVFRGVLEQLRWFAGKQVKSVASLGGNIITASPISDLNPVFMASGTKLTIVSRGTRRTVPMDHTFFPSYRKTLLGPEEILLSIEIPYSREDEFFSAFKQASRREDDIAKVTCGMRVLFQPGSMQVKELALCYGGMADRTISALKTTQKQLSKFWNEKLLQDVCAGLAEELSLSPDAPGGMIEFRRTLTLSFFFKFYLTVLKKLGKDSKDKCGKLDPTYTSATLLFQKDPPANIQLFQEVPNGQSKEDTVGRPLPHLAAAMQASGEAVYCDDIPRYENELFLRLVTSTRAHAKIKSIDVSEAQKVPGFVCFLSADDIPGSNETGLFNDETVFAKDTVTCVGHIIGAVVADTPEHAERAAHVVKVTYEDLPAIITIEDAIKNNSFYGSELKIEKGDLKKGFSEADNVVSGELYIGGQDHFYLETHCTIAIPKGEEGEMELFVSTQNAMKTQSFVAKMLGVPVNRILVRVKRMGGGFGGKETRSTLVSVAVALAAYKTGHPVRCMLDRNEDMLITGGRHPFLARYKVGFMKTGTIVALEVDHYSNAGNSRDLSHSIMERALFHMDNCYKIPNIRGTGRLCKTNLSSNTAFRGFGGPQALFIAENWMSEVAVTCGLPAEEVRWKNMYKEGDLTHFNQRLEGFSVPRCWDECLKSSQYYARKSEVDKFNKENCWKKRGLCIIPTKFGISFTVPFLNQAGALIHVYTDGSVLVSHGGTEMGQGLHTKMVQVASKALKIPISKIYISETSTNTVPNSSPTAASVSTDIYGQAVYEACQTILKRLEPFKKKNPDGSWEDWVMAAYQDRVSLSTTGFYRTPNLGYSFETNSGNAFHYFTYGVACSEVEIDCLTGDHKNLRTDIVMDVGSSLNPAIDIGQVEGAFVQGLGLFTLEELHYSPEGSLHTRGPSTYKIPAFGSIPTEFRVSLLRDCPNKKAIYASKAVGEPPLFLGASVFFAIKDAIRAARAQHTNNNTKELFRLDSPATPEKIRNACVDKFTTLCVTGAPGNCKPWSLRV
The target in test [2] is T1, Xanthine dehydrogenase/oxidase. Put plainly: Inhibition of bovine xanthine oxidase assessed as uric acid formation using xanthine as substrate after 30 mins by spectrophotometric analysis.
Test [3] deals with Rattus norvegicus. Kind of test: Antihyperuricemic activity in Sprague-Dawley rat assessed as decrease of potassium oxonate-induced uric acid level in serum at 100 mg/kg, po administered 1 hr post potassium oxonate challenge measured after 4 hrs by photometric analysis relative to control. Type of test: functional. Details: scale not given: the % may be the effect or the level left.

For test [4], the system named is Rattus norvegicus. Put plainly: Antihyperuricemic activity in Sprague-Dawley rat assessed as decrease of potassium oxonate-induced uric acid level in serum at 50 mg/kg, ip administered 1 hr post potassium oxonate challenge measured after 4 hrs by photometric analysis relative to control. The class given is functional. Details: scale not given: the % may be the effect or the level left. The conditions noted are these: route intraperitoneal.

The target in test [5] is T1, Xanthine dehydrogenase/oxidase. Kind of test: Inhibition of bovine xanthine oxidase assessed as uric acid formation using xanthine as substrate at 10 uM after 30 mins by spectrophotometric analysis. The conditions noted are these: cattle, 0.5 h.
The subject of test [6] is Rattus norvegicus. Kind of test: Antihyperuricemic activity in Sprague-Dawley rat assessed as decrease of potassium oxonate-induced uric acid level in serum at 10 mg/kg, po administered 1 hr post potassium oxonate challenge measured after 4 hrs by photometric analysis relative to control. Details: scale not given: the % may be the effect or the level left.

For the compound `O=C(O)c1ccc(-n2ccnc2)c([N+](=O)[O-])c1`, the inhibition at 100 µM in test [1] was 0%.
On to `COc1ccc(-c2cc(C(F)(F)F)nc(N)n2)cc1`, for which the IC50 in test [2] is more than 100 µM.
For `COc1ccc(-c2cc(O)nc(O)n2)cc1`, the half-maximal inhibitory concentration (IC50) in test [2] is more than 100 µM. For the same compound, the inhibition at 100 µM in test [1] was determined as 0%.
Take `COc1ccc(-c2cc(O)nc(N)n2)cc1`: the Activity in test [3] was found to be 84%.
Take `COc1ccc(-c2cc(O)nc(N)n2)cc1OC`: in test [4], the Activity was 57%.
Consider `COc1cc2c(cc1OC)-c1n[nH]c(=O)n1CC2`, for which the inhibition at 100 µM in test [1] amounted to 0%.
Same read-out and setting: in the case of `O=C1C(=CNNc2ccccc2)C(=O)N(c2ccc(Cl)cc2)C(=S)N1c1ccc(Cl)cc1` it was 0%.
On the same count and under the same terms, in the case of `COC(=O)c1cc(C)c2c(c1)S(=O)(=O)Cc1cc(NN)cc(Cl)c1O2` it was 0%.
Turning to `COc1ccc(-c2cc(NS(C)(=O)=O)nc(N)n2)cc1`, in test [2], the IC50 was more than 100 µM.
`Oc1ncnc2[nH]ncc12` [ALLOPURINOL]: the inhibition at 10 µM in test [5] is 100%. Also, the Activity in test [6] was found to be 184%.
As to `Cc1nc(-c2ccc(OCC(C)C)c(C#N)c2)sc1C(=O)O` [FEBUXOSTAT], the Activity in test [6] is on record as 209%.
